Residues, ends and D or L forms follow the SMILES beside them.
Molecular target: T1, CD47 (Homo sapiens, UniProt Q08722)
T1 construct: MEC-1 or Jurkat membrane preparation is labeled using the Nanotemper NT-647 labeling kit; endogenous in cells; host or cells: Jurkat and/or MEC-1 cell membrane preparation
Experiment: Binding affinity by Microscale Thermophoresis on labeled Jurkat and/or MEC-1 cell membrane preparation
Excerpt: FIG. 5 and FIG. 6. Binding curve measured by MST. The measurement method is based on the directed movement of molecules along a temperature gradient, an effect termed “thermophoresis”. A local temperature difference ΔT leads to a local change in molecule concentration (depletion or enrichment), quantified by the Soret coefficient ST: chot/ccold=exp(−STΔT). Jurkat or Mec-1 cell membrane preparations are labeled using the Nanotemper NT-647 labeling kit as described elsewhere.xliv The labeled preparation is eluted with PBS and stored at 4° C. A stock solution of each peptide is prepared in DMSO (5 mM) and then diluted with PBS. For the peptides evaluated by MST, we have kept the concentration of the NT.115-labeled membrane constant, while the concentration of the ligand (peptide) was varied. […]
Binding affinity measurements. The binding affinities of peptides, here PKT16, PKTD1, PKTD10, PKTD10-1, PKTD10-3, PKTD10-5, PKDT10-7 and PKTD10-8 for a membrane preparation from Jurkat and/or MEC-1 cells were measured by Microscale Thermophoresis^xlv on a Monolith NT115-pico system (Nanotemper Technologies, Munich, Germany).
Binding curve measured by MST. […] A local temperature difference ΔT leads to a local change in molecule concentration (depletion or enrichment), quantified by the Soret coefficient ST: chot/ccold=exp(−STΔT). […]

T1 sequence (Q08722 19-323): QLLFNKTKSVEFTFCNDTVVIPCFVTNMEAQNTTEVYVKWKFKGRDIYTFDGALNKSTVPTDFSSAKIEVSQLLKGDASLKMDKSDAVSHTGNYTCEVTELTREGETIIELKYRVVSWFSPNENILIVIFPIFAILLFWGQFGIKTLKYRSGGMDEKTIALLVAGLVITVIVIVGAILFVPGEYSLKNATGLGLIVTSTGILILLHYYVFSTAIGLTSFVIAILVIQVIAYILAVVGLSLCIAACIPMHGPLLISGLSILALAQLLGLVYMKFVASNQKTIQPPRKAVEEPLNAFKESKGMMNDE

CCCC[C@H](NC(=O)[C@@H](NC(=O)[C@@H](NC(=O)[C@H](Cc1ccc(O)cc1)NC(=O)[C@H](Cc1ccccc1)NC(=O)[C@H](CCCNC(=N)N)N(C)C(=O)[C@H](N)CCCCN)C(C)C)C(C)C)C(=O)N[C@@H](Cc1c[nH]c2ccccc12)C(=O)N[C@@H](CCCCN)C(=O)N[C@H](CCCCN)C(=O)O [PKT16, (D)Lys-(N-Me)Arg-Phe-Tyr-Val-Val-Nle-Trp-Lys-(D)Lys] (HELM PEPTIDE1{[dK].[meR].F.Y.V.V.[Nle].W.K.[dK]}$$$$V2.0; N-terminus and C-terminus assumed)
binding affinities (Kd), order of magnitude in words: micromolar range
